Patent US5952321A, “Substituted azetidinones as anti-inflammatory and antidegenerative agents” (Merck & Co., Inc., priority 1996, dated 1999)
Read-outs that look alike come from different tables or passages of the source.

Biological target: T1, Human Polymorphonuclear Leukocyte Elastase (Homo sapiens, UniProt P08246)
T1 sequence (P08246 30-267): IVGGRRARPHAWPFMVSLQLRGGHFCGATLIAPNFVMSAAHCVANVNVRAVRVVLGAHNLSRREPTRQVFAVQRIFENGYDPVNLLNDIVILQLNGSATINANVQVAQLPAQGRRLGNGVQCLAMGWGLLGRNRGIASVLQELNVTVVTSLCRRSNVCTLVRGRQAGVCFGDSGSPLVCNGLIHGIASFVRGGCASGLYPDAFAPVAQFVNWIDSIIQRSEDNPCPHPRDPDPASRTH
Test: Inhibition of human polymorphonuclear leukocyte elastase via hydrolysis of Boc-AAPAN or Boc-AAPVN
Type: biochemical
Details: second order rate constant for inactivation of the enzyme, read-out: Kobs /[I]
Description: Enzyme Assays for the Inhibition of Human Polymorphonuclear Leukocyte Elastase Via Hydrolysis of N-t-Boc-alanyl-alanyl-prolylalanine-p-nitroanilide (Boc-AAPAN) or […] (Boc-AAPVN) Reagent:
0.05M TES (N-tris[hydroxymethyl]methyl-2-amino-ethanesulfonic acid) Buffer, pH 7.5.
0.2 mM Boc-AAPAN or Boc-AAPVN.
To prepare substrate, the solid was first dissolved in 10.0 ml DMSO. Buffer at pH 7.5 was then added to a final volume of 100 ml.
Crude extract of human polymorphonuclear leukocytes (PMN) containing elastase activity.
Inhibitors (azetidinones) to be tested dissolved in DMSO just before use.
To 1.0 ml of 0.2 mM Boc-AAPAN in a cuvette, 0.01-0.1 ml of DMSO with or without inhibitor was added. After mixing, a measurement was taken at 410 mμ to detect any spontaneous hydrolysis due to presence of test compound. 0.05 Milliliters of PMN extract was then added and the ΔOD/min at 410 mμ was measured and recorded. Beckman model 35 spectrophotometer was used.
Results in Tables I to III were reported as ID50, effective dosage in micrograms per milliliter (μg/ml) for 50% inhibition of the enzyme activity 2 minutes after zero time.
Results were also expressed as Ki, the micromolar concentration of the inhibitor (μM) giving 50% of the control enzyme activity; or as ^k obs/I which is the second order rate constant in per mole per second for inactivation of the enzyme.
The elastase activity in the crude PMN extract may vary from one preparation to another. A control of each new batch is run, and the volume added in the assay procedure is adjusted according to activity.

Row | kinact/KI (pH 7.5, Table I) | Structure (SMILES) | other results
1 | 1.4e+06 M⁻¹ s⁻¹ | CCC[C@@H](NC(=O)N1C(=O)C(CC)(CC)[C@@H]1Oc1ccc(CN(C)CCOC(=O)N2CCOCC2)cc1)c1ccc(C)cc1 | 
2 | 560000 M⁻¹ s⁻¹ | CCC[C@@H](NC(=O)N1C(=O)C(CC)(CC)[C@@H]1Oc1ccc(CN(C)CCO)cc1)c1ccc(C)cc1 [R4=Me; R5=CH2 CH2 OH; R6=H] | 
3 | 750000 M⁻¹ s⁻¹ | CCC[C@@H](NC(=O)N1C(=O)C(CC)(CC)[C@@H]1Oc1ccc(CN(C)CCOc2ccccc2)cc1)c1ccc(C)cc1 [R4=Me; R5=CH2 CH2 OPh; R6=H] | 
4 | 1.2e+06 M⁻¹ s⁻¹ | CCC[C@@H](NC(=O)N1C(=O)C(CC)(CC)[C@@H]1Oc1ccc(CN2CCC(O)C2)cc1)c1ccc(C)cc1 (stereo partly drawn) [R4+R5=--CH2 CH2 CH(OH)CH2 --; R6=H] | 
5 | 925000 M⁻¹ s⁻¹ | CCC[C@@H](NC(=O)N1C(=O)C(CC)(CC)[C@@H]1Oc1ccc(C(C)N(C)CCOC(=O)N(C)C)cc1)c1ccc(C)cc1 (stereo partly drawn) [R4=Me; R5=CH2 CH2 OCONMe2; R6=Me] | 
6 | 1.1e+06 M⁻¹ s⁻¹ | CCC[C@@H](NC(=O)N1C(=O)C(CC)(CC)[C@@H]1Oc1ccc(C(COC)N(CC)CC)cc1)c1ccc(C)cc1 (mixture of isomers) [R4=Et; R5=Et; R6=CH2 OMe, 3,3-Diethyl-1-[(R)-α-(n-propyl)-4-(methyl)benzylaminocarbonyl]-4-(S)-[4-{1-(RS)-(N,N-diethylamino)-2-methoxyethyl}phenoxy]azetidin-2-one] | 
7 | 1.4e+06 M⁻¹ s⁻¹ | CCC[C@@H](NC(=O)N1C(=O)C(CC)(CC)[C@@H]1Oc1ccc(Cn2ccnc2C)cc1)c1ccc(C)cc1 [R4+R5=--CHCHNCMe--; R6=H] | 
8 | 700000 M⁻¹ s⁻¹ | CCC[C@@H](NC(=O)N1C(=O)C(CC)(CC)[C@@H]1Oc1ccc(CN(C)CCOC(=O)NC)cc1)c1ccc(C)cc1 [R4=Me; R5=CH2 CH2 OCONHMe; R6=H] | 
9 | 770000 M⁻¹ s⁻¹ | CCC[C@@H](NC(=O)N1C(=O)C(CC)(CC)[C@@H]1Oc1ccc(C(C)N(C)CCO)cc1)c1ccc(C)cc1 (stereo partly drawn) [R4=Me; R5=CH2 CH2 OH; R6=Me] | 
10 | 1.1e+06 M⁻¹ s⁻¹ | CCC[C@@H](NC(=O)N1C(=O)C(CC)(CC)[C@@H]1Oc1ccc(C2CCCN2CCOCC)cc1)c1ccc(C)cc1 (stereo partly drawn) [R4=CH2 CH2 OEt; R5+R6=--CH2 CH2 CH2 --] | 
11 | 400000 M⁻¹ s⁻¹ | CCC[C@@H](NC(=O)N1C(=O)C(CC)(CC)[C@@H]1Oc1ccc(CN(C)Cc2ccccc2)cc1)c1ccc(C)cc1 [R4=Me; R5=Bn; R6=H] | 
12 | 750000 M⁻¹ s⁻¹ | CCC[C@@H](NC(=O)N1C(=O)C(CC)(CC)[C@@H]1Oc1ccc(CNC(C)=O)cc1)c1ccc(C)cc1 [R4=H; R5=Ac; R6=H, (4S)-3,3-Diethyl-1-[(R)-α-(n-propyl)-4-(methyl)benzylaminocarbonyl]-4-[(4-(N-acetyl)aminomethyl)phenoxy]azetidin-2-one] | 
13 | 660000 M⁻¹ s⁻¹ | CCC[C@@H](NC(=O)N1C(=O)C(CC)(CC)[C@@H]1Oc1ccc(C(C)NCCO)cc1)c1ccc(C)cc1 (stereo partly drawn) [R4=H; R5=CH2 CH2 OH; R6=Me] | 

More lines, now with the values behind:

Row | Structure (SMILES) | kinact/KI (pH 7.5, Table I) | other results
14 | CCC[C@@H](NC(=O)N1C(=O)C(CC)(CC)[C@@H]1Oc1ccc(CN(CC)CCOC)cc1)c1ccc(OCC)cc1 |  | kinact/KI (pH 7.5, Table III): 1.12e+06 M⁻¹ s⁻¹
15 | CCC[C@@H](NC(=O)N1C(=O)C(CC)(CC)[C@@H]1Oc1ccc(CN2CCSC2)cc1)c1ccc(C)cc1 [R4+R5=--CH2 CH2 SCH2 --; R6=H] | 940000 M⁻¹ s⁻¹ | 
16 | CCC[C@@H](NC(=O)N1C(=O)C(CC)(CC)[C@@H]1Oc1ccc(CN(C)CCOC)c(Cl)c1)c1ccc(C)cc1 |  | kinact/KI (pH 7.5, Table III): 1e+06 M⁻¹ s⁻¹
17 | CCC[C@@H](NC(=O)N1C(=O)C(CC)(CC)[C@@H]1Oc1ccc(CN(CC)CCOCCOC)cc1)c1ccc(C)cc1 [R4=Et; R5=CH2 CH2 OCH2 CH2 OMe; R6=H] | 1.3e+06 M⁻¹ s⁻¹ | 
18 | CCC[C@@H](NC(=O)N1C(=O)C(CC)(CC)[C@@H]1Oc1ccc(CN(CC)CCOC)c(Cl)c1)c1ccc(C)cc1 |  | kinact/KI (pH 7.5, Table III): 550000 M⁻¹ s⁻¹
19 | CCC[C@@H](NC(=O)N1C(=O)C(CC)(CC)[C@@H]1Oc1ccc(CN(C)CCN(C)C)cc1)c1ccc(C)cc1 [R4=Me; R5=CH2 CH2 NMe2; R6=H] | 850000 M⁻¹ s⁻¹ | 
20 | CCC[C@@H](NC(=O)N1C(=O)C(CC)(CC)[C@@H]1Oc1ccc(CCN(C)Cc2ccccc2)cc1)c1ccc(C)cc1 [R4=Me; R5=Bn; n=2, (4S)-3,3-Diethyl-1-[(R)-α-n-propyl-(4-methyl)benzylaminocarbonyl]-4-[(4-(2-benzylmethylamino)ethyl)phenoxy]azetidin-2-one] |  | kinact/KI (pH 7.5, Table II): 1.32e+06 M⁻¹ s⁻¹
21 | CCC[C@@H](NC(=O)N1C(=O)C(CC)(CC)[C@@H]1Oc1ccc(CN2CCOCC2)cc1)c1ccc(C)cc1 [R4+R5=--CH2 CH2 OCH2 CH2 --; R6=H] | 820000 M⁻¹ s⁻¹ | 
22 | CCC[C@@H](NC(=O)N1C(=O)C(CC)(CC)[C@@H]1Oc1ccc(CN(C)CCOC)cc1)c1ccc(OC)cc1 |  | kinact/KI (pH 7.5, Table III): 900000 M⁻¹ s⁻¹
23 | CCC[C@@H](NC(=O)N1C(=O)C(CC)(CC)[C@@H]1Oc1ccc(CCN(C)C)cc1)c1ccc(C)cc1 [R4=Me; R5=Me; n=2, (4S)-3,3-Diethyl-1-[(R)-α-n-propyl-(4-methyl)benzylaminocarbonyl]-4-[(4-(2-dimethylamino)ethyl)phenoxy]azetidin-2-one] |  | kinact/KI (pH 7.5, Table II): 1.13e+06 M⁻¹ s⁻¹
24 | CCC[C@@H](NC(=O)N1C(=O)C(CC)(CC)[C@@H]1Oc1ccc(CN2CC(C)NC(C)C2)cc1)c1ccc(C)cc1 (stereo partly drawn) [R4+R5=--CH2 CHMeNCHMeCH2 --; R6=H] | 980000 M⁻¹ s⁻¹ | 
25 | CCC[C@@H](NC(=O)N1C(=O)C(CC)(CC)[C@@H]1Oc1ccc(CN(C)CC2CCCO2)cc1)c1ccc(C)cc1 (stereo partly drawn) [R4=Me; R5=CH2 CH(CH2 CH2 CH2 O); R6=H] | 1e+06 M⁻¹ s⁻¹ | 
26 | CCC[C@@H](NC(=O)N1C(=O)C(CC)(CC)[C@@H]1Oc1ccc(CCN(C)CCN(C)C)cc1)c1ccc(C)cc1 [R4=Me; R5=CH2 CH2 NMe2; n=2, (4S)-3,3-Diethyl-1-[(R)-α-n-propyl-(4-methyl)benzylaminocarbonyl]-4-[(4-(2-((2-dimethylamino)ethyl)methylamino)ethyl)phenoxy]azetidin-2-one] |  | kinact/KI (pH 7.5, Table II): 1.2e+06 M⁻¹ s⁻¹
27 | CCC[C@@H](NC(=O)N1C(=O)C(CC)(CC)[C@@H]1Oc1ccc(C(C)N(C)CCOC)cc1)c1ccc(C)cc1 (stereo partly drawn) [R4=Me; R5=CH2 CH2 OMe; R6=Me, (4S)-3,3-Diethyl-1-[(R)-α-n-propyl-(4-methyl)benzylaminocarbonyl]-4-[(R,S)-4-((1-(2-methoxyethyl)methylamino)ethyl)phenoxy]azetidin-2-one] | 600000 M⁻¹ s⁻¹ | 
28 | CCC[C@@H](NC(=O)N1C(=O)C(CC)(CC)[C@@H]1Oc1ccc(CN(C)CC(=O)N(CCC)CCC)cc1)c1ccc(C)cc1 [R4=Me; R5=CH2 CON(n-Pr)2; R6=H] | 910000 M⁻¹ s⁻¹ | 
29 | CCC[C@@H](NC(=O)N1C(=O)C(CC)(CC)[C@@H]1Oc1cc(C)c(CN(C)CCOC)c(C)c1)c1ccc(C)cc1 |  | kinact/KI (pH 7.5, Table III): 300000 M⁻¹ s⁻¹
30 | CCC[C@@H](NC(=O)N1C(=O)C(CC)(CC)[C@@H]1Oc1ccc(CN2CCC[C@H]2CO)cc1)c1ccc(C)cc1 [R4+R5=--CH2 CH2 CH2 CH(S--CH2 OH); R6=H] | 950000 M⁻¹ s⁻¹ | 
31 | CCC[C@@H](NC(=O)N1C(=O)C(CC)(CC)[C@@H]1Oc1ccc(CNC(=O)CN(C)Cc2ccccc2)cc1)c1ccc(C)cc1 [R4=H; R5=COCH2 N(Me)Bn; R6=H] | 1.4e+06 M⁻¹ s⁻¹ | 
32 | CCC[C@@H](NC(=O)N1C(=O)C(CC)(CC)[C@@H]1Oc1ccc(CN(CC)CCOCCOC)c(OC)c1)c1ccc(C)cc1 |  | kinact/KI (pH 7.5, Table III): 1.7e+06 M⁻¹ s⁻¹
33 | CCC[C@@H](NC(=O)N1C(=O)C(CC)(CC)[C@@H]1Oc1ccc(CNC2CC2)cc1)c1ccc2c(c1)OCO2 |  | kinact/KI (pH 7.5, Table III): 1.6e+06 M⁻¹ s⁻¹
34 | CCC[C@@H](NC(=O)N1C(=O)C(CC)(CC)[C@@H]1Oc1ccc(CN(C)CCOC(=O)C(C)C)cc1)c1ccc(C)cc1 [R4=Me; R5=CH2 CH2 OCOCHMe2; R6=H] | 630000 M⁻¹ s⁻¹ | 
35 | CCC[C@@H](NC(=O)N1C(=O)C(CC)(CC)[C@@H]1Oc1ccc(CN(CC)CCOC(=O)N(C)C)cc1)c1ccc(C)cc1 [R4=Et; R5=CH2 CH2 OCONMe2; R6=H] | 1.4e+06 M⁻¹ s⁻¹ | 
36 | CCC[C@@H](NC(=O)N1C(=O)C(CC)(CC)[C@@H]1Oc1ccc(CN(C)CCS(=O)(=O)CC)cc1)c1ccc(C)cc1 [R4=Me; R5=CH2 CH2 SO2 Et; R6=H, (4S)-3,3-Diethyl-1-[(R)-α-n-propyl-(4-methyl)benzylaminocarbonyl]-4-[(4-((2-thioethyl)ethyl)methylaminomethyl)phenoxy]azetidin-2-one. S-dioxide.] | 1.5e+06 M⁻¹ s⁻¹ | 
37 | CCC[C@@H](NC(=O)N1C(=O)C(CC)(CC)[C@@H]1Oc1ccc(CN(C)CCSCC)cc1)c1ccc(C)cc1 [R4=Me; R5=CH2 CH2 SEt; R6=H, (4S)-3,3-diethyl-1-[(R)-α-n-propyl-(4-methyl)benzylaminocarbonyl]-4-[(4-((2-thioethyl)ethyl)methylaminomethyl)phenoxy]azetidin-2-one] | 1.05e+06 M⁻¹ s⁻¹ | 
38 | CCC[C@@H](NC(=O)N1C(=O)C(CC)(CC)[C@@H]1Oc1ccc(CN(CC)C(C)COC)cc1)c1ccc2occc2c1 (stereo partly drawn) |  | kinact/KI (pH 7.5, Table III): 1.05e+06 M⁻¹ s⁻¹
39 | CCC[C@@H](NC(=O)N1C(=O)C(CC)(CC)[C@@H]1Oc1ccc(CCCN(CC)CC)cc1)c1ccc(C)cc1 [R4=Et; R5=Et; n=3] |  | kinact/KI (pH 7.5, Table II): 540000 M⁻¹ s⁻¹
